Assay results from patent publication US6784137B2, “6-aryl-4-aminopicolinates and their use as herbicides” (Dow AgroSciences LLC, priority 2001, dated 2004).
Like-named read-outs stand apart in the source and are kept apart here.

What was measured:
[1] = system: Pigweed (redroot) (Amaranthus retroflexus); test: Postemergence herbicidal activity, greenhouse spray; type: in vivo; conditions: visual score after 2 weeks; for pest or weed control at 62.5 µg/mL: Amaranthus retroflexus, post-emergence, 336 h, rate 62.5 (unit inferred), read-out: Post-emergent % control AMARE; for Post-emergent % control AMARE: rate 62.5 (unit not given)
In short: (§1)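 Postemergence application by compressed-air atomizer ([…]) onto plants at the 1-2 true leaf stage; rates set by serial dilution of acetone:DMSO stock into the spray carrier. Plants were kept in a greenhouse with ~15 hr photoperiod and sub-irrigated.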

[2] = system: Barnyardgrass (Echinochloa crus-galli); test: as above; type: in vivo; conditions: Echinochloa crus-galli, post-emergence, 336 h, visual score after 2 weeks, read-out: Post-emergent % control ECHCG; for pest or weed control at 500 ppm / pest or weed control at 250 ppm: Table 1; for pest or weed control at 500 ppm: rate 500 ppm; for pest or weed control at 250 ppm: rate 250 ppm
In short: as §1

[3] = system: Lambsquarter (Chenopodium album); test: as above; type: in vivo; conditions: Chenopodium album, post-emergence, 336 h, visual score after 2 weeks, read-out: Post-emergent % control CHEAL; for pest or weed control at 500 ppm / pest or weed control at 250 ppm: Table 1; for pest or weed control at 500 ppm: rate 500 ppm; for pest or weed control at 250 ppm: rate 250 ppm
In short: as §1

[4] = system: Cocklebur (Xanthium strumarium); test: as above; type: in vivo; conditions: Xanthium strumarium, post-emergence, 336 h, visual score after 2 weeks, read-out: Post-emergent % control XANST; for pest or weed control at 500 ppm / pest or weed control at 250 ppm: Table 1; for pest or weed control at 500 ppm: rate 500 ppm, 0 no injury, 100 complete kill; for pest or weed control at 250 ppm: rate 250 ppm
In short: as §1

[5] = system: Yellow nutsedge (Cyperus esculentus); test: as above; type: in vivo; conditions: Cyperus, post-emergence, 336 h, visual score after 2 weeks, read-out: Post-emergent % control CYPES; for pest or weed control at 500 ppm / pest or weed control at 250 ppm: Table 1; for pest or weed control at 500 ppm: rate 500 ppm; for pest or weed control at 250 ppm: rate 250 ppm
In short: as §1

[6] = system: Wheat(var. Merica) (Triticum aestivum); test: Postemergence herbicidal activity, selectivity to wheat; type: in vivo; conditions: post-emergence, 336 h, Table 3, rate 62.5 (unit inferred), crop injury, read-out: Post-emergent % control TRZAS
Protocol: (§2) Seeds of the desired test plant species were planted in Grace-Sierra MetroMix® 306 planting mixture, which typically has a pH of 6.0 to 6.8 and an organic matter content of about 30 percent, in plastic pots with a surface area of 64 square centimeters. When required to ensure good germination and healthy plants, a fungicide treatment and/or other chemical or physical treatment was applied. The plants were grown for 7-21 days in a greenhouse with an approximate 15 hr photoperiod which was maintained at about 23-29° C. during the day and 22-28° C. during the night. Nutrients and water were added on a regular basis and supplemental lighting was provided with overhead metal halide 1000-Watt lamps as necessary. The plants were employed for testing when they reached the first or second true leaf stage. A weighed amount, determined by the highest rate to be tested, of each test compound was placed in a 20 mL glass vial and was dissolved in 4 mL of a 97:3 v/v (volume/volume) mixture of acetone and dimethyl sulfoxide (DMSO) to obtain concentrated stock solutions. […] The concentrated stock solutions obtained were diluted with an aqueous mixture containing acetone, water, isopropyl alcohol, DMSO, At plus 411 F crop oil concentrate, and Triton X-155 surfactant in a 48.5:39:10:1.5:1.0:0.02 v/v ratio to obtain spray solutions of known concentration. The solutions containing the highest concentration to be tested were prepared by diluting 2 mL aliquots of the stock solution with 13 mL of the mixture and lower concentrations were prepared by serial dilution of the stock solution. Approximately 1.5 mL aliquots of each solution of known concentration were sprayed evenly onto each of the test plant pots using a DeVilbiss atomizer driven by compressed air pressure of […] (140 to 280 kiloPascals) to obtain thorough coverage of each plant. Control plants were sprayed in the same manner with the aqueous mixture. In this test an application rate of 1 ppm results in the application of approximately 1 g/Ha. The treated plants and control plants were placed in a greenhouse as described above and watered by sub-irrigation to prevent wash-off of the test compounds. After 2 weeks the condition of the test plants as compared with that of the untreated plants was determined visually and scored on a scale of 0 to 100 percent where 0 corresponds to no injury and 100 corresponds to complete kill.

[7] = system: Corn (#14 3377) (Zea mays); test: Postemergence herbicidal activity, selectivity to corn; type: in vivo; conditions: post-emergence, 336 h, Table 4, rate 62.5 (unit inferred), crop injury, read-out: Post-emergent % control ZEAMX
Protocol: as §2

[8] = system: Crabgrass(large) (Digitaria sanguinalis); test: Preemergence herbicidal activity, soil spray; type: in vivo; conditions: Digitaria sanguinalis, pre-emergence, 504 h, Table 5, visual score after 3 weeks, read-out: Pre-emergent % control DIGSA; for pest or weed control at 560 ppm: rate 560 ppm
In short: (§3)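 Preemergence soil application onto freshly seeded pots. Carrier: 99.9:0.1 water:Tween 155 after acetone/DMSO solubilisation. Greenhouse, ~15 hr photoperiod, supplemental metal halide lighting, regular nutrients and top watering.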

[9] = system: Pigweed (redroot) (Amaranthus retroflexus); test: Preemergence herbicidal activity, soil spray; type: in vivo; conditions: Amaranthus retroflexus, pre-emergence, 504 h, Table 5, visual score after 3 weeks, read-out: Pre-emergent % control AMARE; for pest or weed control at 560 ppm: rate 560 ppm
In short: as §3

[10] = system: Giant Foxtail (Setaria faberi); test: Preemergence herbicidal activity, soil spray; type: in vivo; conditions: Setaria faberi, pre-emergence, 504 h, Table 5, visual score after 3 weeks, read-out: Pre-emergent % control SETFA; for pest or weed control at 560 ppm: rate 560 ppm
In short: as §3

[11] = system: Lambsquarter (Chenopodium album); test: Preemergence herbicidal activity, soil spray; type: in vivo; conditions: Chenopodium album, pre-emergence, 504 h, Table 5, visual score after 3 weeks, read-out: Pre-emergent % control CHEAL; for pest or weed control at 560 ppm: rate 560 ppm, 100 complete kill or no germination
In short: as §3

For `COC(=O)c1nc(-c2ccc(F)cc2)cc(N)c1Cl` [Compound 43, Methyl 4-amino-3-chloro-6-(4-fluorophenyl)pyridine-2-carboxylate], the pest or weed control at 62.5 µg/mL ([1]; Table 3) was 100%, the “Post-emergent % control AMARE” value ([1]; Table 4) was 100% and the pest or weed control at 500 ppm [2] was 95%. It also gave a pest or weed control at 500 ppm [3] of 100%, a pest or weed control at 500 ppm [4] of 100% and a pest or weed control at 500 ppm [5] of 100%. For the same compound, the pest or weed control at 62.5 µg/mL [6] was 10%, the melting point was 125 °C and the pest or weed control at 62.5 µg/mL [7] was 0%. For the same compound, the pest or weed control at 560 ppm [8] was 100%, the pest or weed control at 560 ppm [9] was 100% and the pest or weed control at 560 ppm [10] was 98%. It also gave a pest or weed control at 560 ppm [11] of 100%.

For `COC(=O)c1nc(-c2ccc(Cl)cc2)cc(NC(C)=O)c1Cl` [Compound 53, Methyl 4-acetamido-3-chloro-6-(4-chlorophenyl)pyridine-2-carboxylate], the pest or weed control at 62.5 µg/mL ([1]; Table 3) was 70%, the “Post-emergent % control AMARE” value ([1]; Table 4) was 70% and the pest or weed control at 62.5 µg/mL [6] was 0%. It also gave a melting point of 151 to 152 °C, a pest or weed control at 62.5 µg/mL [7] of 10% and a pest or weed control at 560 ppm [8] of 100%. It also gave a pest or weed control at 560 ppm [9] of 100%, a pest or weed control at 560 ppm [10] of 100% and a pest or weed control at 560 ppm [11] of 100%.

In the case of `Nc1cc(-c2ccc3c(c2)OCO3)nc(C(=O)O)c1Cl` [Compound 153, 4-Amino-3-chloro-6-(3,4-methylenedioxyphenyl)pyridine-2-carboxylic acid], the pest or weed control at 62.5 µg/mL ([1]; Table 3) is reported as 100%, the pest or weed control at 500 ppm [2] is reported as 95% and the pest or weed control at 500 ppm [3] is reported as 98%. For the same compound, the pest or weed control at 500 ppm [4] was 100%, the pest or weed control at 500 ppm [5] was 70% and the pest or weed control at 62.5 µg/mL [6] was 10%. The melting point was 182 °C, the pest or weed control at 560 ppm [8] was 100% and the pest or weed control at 560 ppm [9] was 100%. For the same compound, the pest or weed control at 560 ppm [10] was 100% and the pest or weed control at 560 ppm [11] was 100%.

In the case of `COC(=O)c1nc(-c2ccc3c(c2)OCO3)cc(N)c1Cl` [Compound 29, Methyl 4-amino-3-chloro-6-(3,4-methylenedioxyphenyl)pyridine-2-carboxylate], the pest or weed control at 62.5 µg/mL ([1]; Table 3) is reported as 90%, the pest or weed control at 500 ppm [2] is reported as 95% and the pest or weed control at 500 ppm [3] is reported as 100%. For the same compound, the pest or weed control at 500 ppm [4] was 100%, the pest or weed control at 500 ppm [5] was 80% and the pest or weed control at 62.5 µg/mL [6] was 10%. The melting point was 184 °C, the pest or weed control at 560 ppm [8] was 100% and the pest or weed control at 560 ppm [9] was 95%. For the same compound, the pest or weed control at 560 ppm [10] was 90% and the pest or weed control at 560 ppm [11] was 100%.

Work on `COC(=O)c1nc(-c2ccc(F)cc2Cl)cc(N)c1Cl` [Compound 58, Methyl 4-amino-3-chloro-6-(2-chloro-4-fluorophenyl)pyridine-2-carboxylate] yielded a pest or weed control at 62.5 µg/mL ([1]; Table 4) of 100%, a pest or weed control at 500 ppm [2] of 70% and a pest or weed control at 500 ppm [3] of 100%. For the same compound, the pest or weed control at 500 ppm [4] was 100%, the pest or weed control at 500 ppm [5] was 70% and the melting point was 155 to 157 °C. It also gave a pest or weed control at 62.5 µg/mL [7] of 0%.

With `Nc1cc(-c2ccc(Cl)cc2Cl)nc(C(=O)O)c1Cl` [Compound 146, 4-Amino-3-chloro-6-(2,4-dichlorophenyl)pyridine-2-carboxylic acid] the pest or weed control at 62.5 µg/mL ([1]; Table 4) was 100%, the pest or weed control at 250 ppm [2] was 85% and the pest or weed control at 125 ppm ([2]; Table 2, rate 125 ppm) was 75%. The pest or weed control at 250 ppm [3] was 100%, the pest or weed control at 125 ppm ([3]; Table 2, rate 125 ppm) was 100% and the pest or weed control at 250 ppm [4] was 100%. For the same compound, the pest or weed control at 125 ppm ([4]; Table 2, rate 125 ppm) was 100%, the pest or weed control at 250 ppm [5] was 98% and the pest or weed control at 125 ppm ([5]; Table 2, rate 125 ppm) was 95%. It also gave a melting point of 176 to 177 °C, a pest or weed control at 62.5 µg/mL [7] of 0% and a pest or weed control at 560 ppm [8] of 80%. For the same compound, the pest or weed control at 560 ppm [9] was 100%, the pest or weed control at 560 ppm [10] was 90% and the pest or weed control at 560 ppm [11] was 100%.

`COC(=O)c1nc(-c2ccc(C)cc2)cc(N)c1Cl` [Compound 20, Methyl 4-amino-3-chloro-6-(4-methylphenyl)pyridine-2-carboxylate] showed a pest or weed control at 62.5 µg/mL ([1]; Table 3) of 100%, a pest or weed control at 250 ppm [2] of 70% and a pest or weed control at 250 ppm [3] of 100%. For the same compound, the pest or weed control at 250 ppm [4] was 100%, the pest or weed control at 250 ppm [5] was 50% and the pest or weed control at 62.5 µg/mL [6] was 10%. For the same compound, the melting point was 111 to 113 °C, the pest or weed control at 560 ppm [8] was 100% and the pest or weed control at 560 ppm [9] was 100%. For the same compound, the pest or weed control at 560 ppm [10] was 100% and the pest or weed control at 560 ppm [11] was 100%.

For `COC(=O)c1nc(-c2ccc(Cl)cc2F)cc(NC(C)=O)c1Cl` [Compound 52, Methyl 4-acetamido-3-chloro-6-(4-chloro-2-fluorophenyl)pyridine-2-carboxylate], the pest or weed control at 62.5 µg/mL ([1]; Table 3) was 70%, the pest or weed control at 500 ppm [2] was 90% and the pest or weed control at 500 ppm [3] was 100%. It also gave a pest or weed control at 500 ppm [4] of 100%, a pest or weed control at 500 ppm [5] of 40% and a pest or weed control at 62.5 µg/mL [6] of 10%. For the same compound, the melting point was 134 to 135 °C, the pest or weed control at 140 ppm ([8]; rate 140 ppm) was 100% and the pest or weed control at 140 ppm ([9]; rate 140 ppm) was 100%. The pest or weed control at 140 ppm ([10]; rate 140 ppm) was 95% and the pest or weed control at 140 ppm ([11]; rate 140 ppm) was 100%.

`Cc1cc(Cl)ccc1-c1cc(N)c(Cl)c(C(=O)O)n1` [Compound 155, 4-Amino-3-chloro-6-(4-chloro-2-methylphenyl)pyridine-2-carboxylic acid] showed a pest or weed control at 62.5 µg/mL ([1]; Table 4) of 100%, a melting point of 153 to 154 °C and a pest or weed control at 62.5 µg/mL [7] of 0%.

Compound `COC(=O)c1nc(-c2ccc(Cl)cc2C)cc(N)c1Cl` [Compound 45, Methyl 4-amino-3-chloro-6-(4-chloro-2-methylphenyl)pyridine-2-carboxylate] has a pest or weed control at 62.5 µg/mL ([1]; Table 4) of 100%, a melting point of 114 to 115 °C and a pest or weed control at 62.5 µg/mL [7] of 0%.
